The results in this text go back to US20160067232A1, “METHODS FOR TREATING A STROKE-RELATED SENSORIMOTOR IMPAIRMENT USING AMINOPYRIDINES” (Acorda Therapeutics, Inc., priority 2011, published 2016).

Test [1] has as its system rats with middle cerebral artery occlusion (MCAO). The test can be described thus: Forelimb placing test, MCAO rats, double crossover study (Example 2). The format is in vivo, Sprague Dawley rat. The method, then: 4-AP was evaluated for its ability to promote functional sensorimotor improvement following ischemic stroke in rats with stable motor deficits at times remote from their ischemic events. The animal model mimics the conditions in human ischemic stroke and is produced by middle cerebral artery occlusion (MCAO), which results in extensive infarction in cerebral cortex and striatum, including the cortical spinal tract (white matter).
In particular, the MCAO model in Sprague Dawley rats that was utilized in the experiments presented below mimics the conditions in human ischemic stroke. In this model, focal cerebral infarcts were made by permanent occlusion of the proximal right middle cerebral artery (MCA) using a modification of the method of Tamura et al. (No To Shinkei 1986; 38:747-51). Briefly, the temporalis muscle was bisected and reflected through an incision made midway between the eye and the ear canal. The proximal MCA was exposed through a subtemporal craniectomy without removing the zygomatic arch and without transecting the facial nerve.
Dosing and Treatment: Rats were treated in accordance with the dosing schedule shown in Tables 2A, 2B, 3 and FIG. 2, with each Phase being a two week period of time. A solution of 4-AP was used in this experiment. Dosing was started at 4 weeks after ischemic event. 4-aminopyridine was dissolved in water for injection (WFI, Cellgro) and sterile filtered. Final concentrations of 0.315 mg/mL or 1.0 mg/mL of 4-aminopyridine were delivered at 2 mL/kg by gastric gavage, resulting in final doses of 0.63 mg/kg and 2 mg/kg respectively. Vehicle control treatment was WFI delivered at 2 mL/kg by gastric gavage. This study was divided into three treatment phases (1-3) with each randomized cohort of animals receiving a different dose level during each of the treatment phases. Starting on day 30 after MCAO (Day 30, start of phase 1), the animals received gavage dosing of solutions (2 mL/kg) approximately 12 hours apart, for a total of five doses. The same schedule was repeated with different treatment on Day 44 and Day 58 for phase 2 and 3 of the study, respectively. Animals were not treated during the 10 days between phases (washout period).
Treatment groups: Dosing was started 4 weeks after MCAO surgery. During these 4 weeks, weekly behavioral assessments, as defined below, were performed. Two dose levels of 4-AP plus vehicle control were assessed, with treatment starting at 4 weeks after ischemic event. […] Following the final behavioral assessment, drug was withdrawn for 10 or 11 days, behavior was re-assessed, and then animals were re-challenged with a cross-over treatment (Phase 2 of Table 2B) as described in Tables 2A, 2B and 3, followed by the same behavioral testing and dosing regimen. […]

Test [2] shares this test system. As to the kind of experiment: Infarct volume measurement, MCAO rats (Example 17). The format is in vivo, Sprague Dawley rat. The method, then:
Infarct measurement: Brains were embedded in paraffin and 5 micron thick coronal sections were cut using a microtome. Sections were stained with hematoxylin and eosin (H&E), using standard methods. Seven coronal sections (+4.7, +2.7, +0.7, −1.3, −3.3, −5.3 and −7.3, compared to bregma respectively) from each brain were photographed by a digital camera, and the infarct area on each slice was determined by NIH Image (Image J) using the “indirect method” (area of the intact contralateral [left] hemisphere−area of intact regions of the ipsilateral [right] hemisphere) to correct for brain edema. Infarct areas were then summed among slices and multiplied by slice thickness (the distance between sections) to give total infarct volume, which was expressed as a percentage of intact contralateral hemispheric volume.
Euthanasia and post-mortem processing: At day 70 after MCAO rats were anesthetized as described in Example 2, above.
Infarct measurement: Infarct measurement was performed as described in Example 2, above.
Statistical Methods: Changes from pre-treatment baseline values (Day 56) were calculated for each behavioral score at each time point assessed after dosing. Mean behavioral parameter data were subject to Analysis of Variance (ANOVA). Infarct volume data were analyzed by ANOVA. All data were expressed as means±SEM.

Turning to `Nc1ccncc1` [4-aminopyridine], in test [1] (0.63 mg/kg b.i.d. p.o., level 0.05), the “Forelimb function, low dose compared to vehicle, first mixed model” value was “didn't show statistical significant improvement”. Further, in test [1] (0.63 mg/kg b.i.d. p.o., p<0.0001), the “Forelimb function, low dose compared to vehicle, second mixed model” value is “significant difference”. Further, in test [1] (2 mg/kg b.i.d. p.o., first mixed model, p=0.0334 vs low, p=0.001 vs vehicle), the “Forelimb function, high dose compared to low dose and vehicle” value is listed as “significantly improved the forelimb function”. In addition, the “Effect on forelimb function (FIG. 3)” value in test [1] (low or high dose, 4 weeks post ischemic brain injury, dose-responsive, reversible) is reported as “effective to improve forelimb function”. Also, the “Mean (SE) Infarct Volume (%)” value in test [2] (4-AP dose escalation 0.5, 1 and 2 mg/kg p.o. b.i.d. Days 56-65 after MCAO) is recorded as 40.0 (2.3) %. In test [2] (Day 70 after MCAO), the “Infarct volume, 4-aminopyridine versus vehicle (water)” value is given as “no differences in infarct volume were observed”.
